Data reported in PubChem BioAssay (NCI).
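Grown in 96-well plates, cells were treated for 48 hours with each compound at five concentrations. Insufficient inhibition: endpoint recorded as highest concentration tested. The concentration for full growth arrest is given as TGI.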

Each compound was assayed on IGROV1 ovarian (assay: NCI anticancer screen, dose series, 48 h).

Row | SMILES | TGI
1 | O=C(c1ccccc1)c1c(-c2ccccc2)[nH]n(-c2ccc([N+](=O)[O-])cc2)c(=O)c1=O | > 100 µM
2 | CCN(CC)CCn1nc(N)c2nc3cc(Cl)ccc3nc21 | 52.8 µM
3 | Cc1ccc(S(=O)(=O)C2=Cc3ccc(C(F)(F)F)cc3C2(O)c2cccc(C(F)(F)F)c2)cc1 (stereo unspecified) | 7.03 µM
4 | Nc1nc(Cl)cc(NCCO)n1 | > 100 µM
5 | COc1cccc(OC)c1/C=C1\OC(=O)c2cccc(OC)c21 | > 100 µM

The compounds below were run on SW-620 colon (assay: NCI anticancer screen, dose series, 48 h).

Row | SMILES | TGI
6 | Cc1cn2c(=O)c3ccccc3nc2s1 | > 100 µM
7 | O=C(CC(c1ccccc1)N1CCCCC1)c1ccccc1 (stereo unspecified) | 18.7 µM
8 | O=C(c1ccccc1)c1c(-c2ccccc2)[nH]n(-c2ccc([N+](=O)[O-])cc2)c(=O)c1=O | > 100 µM
9 | CCN(CC)CCn1nc(N)c2nc3cc(Cl)ccc3nc21 | > 100 µM
10 | Cc1ccc(S(=O)(=O)C2=Cc3ccc(C(F)(F)F)cc3C2(O)c2cccc(C(F)(F)F)c2)cc1 (stereo unspecified) | 3.85 µM
11 | Nc1nc(Cl)cc(NCCO)n1 | > 100 µM
12 | COc1cccc(OC)c1/C=C1\OC(=O)c2cccc(OC)c21 | > 100 µM

The compounds below were run on ACHN renal (assay: NCI anticancer screen, dose series, 48 h).

Row | SMILES | TGI
13 | Cc1cn2c(=O)c3ccccc3nc2s1 | > 100 µM
14 | O=C(CC(c1ccccc1)N1CCCCC1)c1ccccc1 (stereo unspecified) | 30.7 µM
15 | O=C(c1ccccc1)c1c(-c2ccccc2)[nH]n(-c2ccc([N+](=O)[O-])cc2)c(=O)c1=O | > 100 µM
16 | CCN(CC)CCn1nc(N)c2nc3cc(Cl)ccc3nc21 | > 100 µM
17 | Cc1ccc(S(=O)(=O)C2=Cc3ccc(C(F)(F)F)cc3C2(O)c2cccc(C(F)(F)F)c2)cc1 (stereo unspecified) | 7.64 µM
18 | Nc1nc(Cl)cc(NCCO)n1 | > 100 µM
19 | COc1cccc(OC)c1/C=C1\OC(=O)c2cccc(OC)c21 | > 100 µM

What follows are compounds tested on DU-145 prostate (assay: NCI anticancer screen, dose series, 48 h).

Row | SMILES | TGI
20 | O=C(CC(c1ccccc1)N1CCCCC1)c1ccccc1 (stereo unspecified) | 32.3 µM
21 | O=C(c1ccccc1)c1c(-c2ccccc2)[nH]n(-c2ccc([N+](=O)[O-])cc2)c(=O)c1=O | > 100 µM
22 | CCN(CC)CCn1nc(N)c2nc3cc(Cl)ccc3nc21 | > 100 µM
23 | Cc1ccc(S(=O)(=O)C2=Cc3ccc(C(F)(F)F)cc3C2(O)c2cccc(C(F)(F)F)c2)cc1 (stereo unspecified) | 10.3 µM
24 | Nc1nc(Cl)cc(NCCO)n1 | > 100 µM
25 | COc1cccc(OC)c1/C=C1\OC(=O)c2cccc(OC)c21 | > 100 µM

The compounds below were run on CAKI-1 renal (assay: NCI anticancer screen, dose series, 48 h).

Row | SMILES | TGI
26 | Cc1cn2c(=O)c3ccccc3nc2s1 | > 100 µM
27 | O=C(CC(c1ccccc1)N1CCCCC1)c1ccccc1 (stereo unspecified) | 30.3 µM
28 | O=C(c1ccccc1)c1c(-c2ccccc2)[nH]n(-c2ccc([N+](=O)[O-])cc2)c(=O)c1=O | > 100 µM
29 | CCN(CC)CCn1nc(N)c2nc3cc(Cl)ccc3nc21 | > 100 µM
30 | Cc1ccc(S(=O)(=O)C2=Cc3ccc(C(F)(F)F)cc3C2(O)c2cccc(C(F)(F)F)c2)cc1 (stereo unspecified) | 14.6 µM
31 | Nc1nc(Cl)cc(NCCO)n1 | > 100 µM
32 | COc1cccc(OC)c1/C=C1\OC(=O)c2cccc(OC)c21 | > 75.2 µM

What follows are compounds tested on NCI/ADR-RES ovarian (assay: NCI anticancer screen, dose series, 48 h).

Row | SMILES | TGI
33 | O=C(CC(c1ccccc1)N1CCCCC1)c1ccccc1 (stereo unspecified) | 60.8 µM
34 | O=C(c1ccccc1)c1c(-c2ccccc2)[nH]n(-c2ccc([N+](=O)[O-])cc2)c(=O)c1=O | > 100 µM
35 | CCN(CC)CCn1nc(N)c2nc3cc(Cl)ccc3nc21 | > 100 µM
36 | Cc1ccc(S(=O)(=O)C2=Cc3ccc(C(F)(F)F)cc3C2(O)c2cccc(C(F)(F)F)c2)cc1 (stereo unspecified) | 8.51 µM
37 | Nc1nc(Cl)cc(NCCO)n1 | > 100 µM
38 | COc1cccc(OC)c1/C=C1\OC(=O)c2cccc(OC)c21 | > 100 µM

What follows are compounds tested on A498 renal (assay: NCI anticancer screen, dose series, 48 h).

Row | SMILES | TGI
39 | Cc1cn2c(=O)c3ccccc3nc2s1 | > 100 µM
40 | O=C(CC(c1ccccc1)N1CCCCC1)c1ccccc1 (stereo unspecified) | 29.3 µM
41 | O=C(c1ccccc1)c1c(-c2ccccc2)[nH]n(-c2ccc([N+](=O)[O-])cc2)c(=O)c1=O | > 100 µM
42 | CCN(CC)CCn1nc(N)c2nc3cc(Cl)ccc3nc21 | > 100 µM
43 | Cc1ccc(S(=O)(=O)C2=Cc3ccc(C(F)(F)F)cc3C2(O)c2cccc(C(F)(F)F)c2)cc1 (stereo unspecified) | 3.83 µM
44 | Nc1nc(Cl)cc(NCCO)n1 | > 100 µM
45 | COc1cccc(OC)c1/C=C1\OC(=O)c2cccc(OC)c21 | 32.3 µM

Each compound was assayed on MDA-MB-435 (assay: NCI anticancer screen, dose series, 48 h).

Row | SMILES | TGI
46 | O=C(CC(c1ccccc1)N1CCCCC1)c1ccccc1 (stereo unspecified) | 27.4 µM
47 | O=C(c1ccccc1)c1c(-c2ccccc2)[nH]n(-c2ccc([N+](=O)[O-])cc2)c(=O)c1=O | > 100 µM
48 | CCN(CC)CCn1nc(N)c2nc3cc(Cl)ccc3nc21 | > 100 µM
49 | Cc1ccc(S(=O)(=O)C2=Cc3ccc(C(F)(F)F)cc3C2(O)c2cccc(C(F)(F)F)c2)cc1 (stereo unspecified) | 4.28 µM
50 | Nc1nc(Cl)cc(NCCO)n1 | > 100 µM
51 | COc1cccc(OC)c1/C=C1\OC(=O)c2cccc(OC)c21 | 2.12 µM
